Laboratory results published in patent US20250288683A1, “TETRAHYDROISOQUINOLINE HETEROBIFUNCTIONAL BCL-XL DEGRADERS” (Treeline Biosciences, Inc., priority 2022, published 2025).

The compounds below were run against T1, Human BCL-XL protein (N-terminal HiBiT tagged BCL-XL in HT1080 cells) (Homo sapiens, UniProt Q07817) (assay: HiBiT based degradation assay). Conditions: HT1080 cells expressing N-terminal HiBiT tagged BCL-XL, 6 h, normalized with DMSO control.
T1 construct: expressed in transfected cells; host or cells: HT-1080 (ATCC CCL-121), stably transduced with lentivirus pLV-UBC-N-HiBiT-BCL-XL-PGK-puro and selected with puromycin
T1 sequence (Q07817 whole entry): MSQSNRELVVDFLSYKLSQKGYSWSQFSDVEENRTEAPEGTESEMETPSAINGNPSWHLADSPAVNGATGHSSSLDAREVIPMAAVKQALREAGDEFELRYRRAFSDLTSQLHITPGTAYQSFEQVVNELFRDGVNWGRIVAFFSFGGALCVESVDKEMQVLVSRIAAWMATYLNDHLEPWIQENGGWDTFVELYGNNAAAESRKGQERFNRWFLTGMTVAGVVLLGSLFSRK
Assay type: cell-based
Source text: HiBiT Based Degradation Assay
Human BCL-XL protein coding open reading frame fused with N-terminal HiBiT coding sequence was synthesized from Integrated DNA Technologies (IDT). Next, N-HiBiT-BCL-XL sequence was cloned into pLV-UBC-PGK-Puro, a lentivirus plasmid purchased from Vectorbuilder, to generate pLV-UBC-N-HiBiT-BCL-XL-PGK-puro. Lentiviral particles were generated from Lenti-X™ 293T cells (Clontech) by co-transfection of pLV-UBC-N-HiBiT-BCL-XL-PGK-puro plasmids and lentiviral packaging plasmid mix (Cellecta). HT-1080 [HT1080](ATCC CCL-121) cells were infected with the lentivirus, and HT1080 cells stably integrated with the lentiviral vectors were established by incubation with 1 μg/mL puromycin (Thermofisher).
HT1080 cells expressing N-terminal HiBiT tagged BCL-XL were dispensed into a 384-well plate pre-spotted with compounds at varying concentrations. Three thousand cells were seeded into each well in 40 μL of RPMI 1640 media. […] After incubation, luminescence was read on a PHERAstar FSX Plate Reader (BMG). BCL-XL degradation at each indicated concentration was normalized with the DMSO control. The BCL-XL degradation curves were plotted using a four-parameter logistic model. For compounds displaying hook effects, the curve fitting was performed using the bottom point of the hook curves (i.e., the point of Ymin) as the bottom plateau to calculate EC50.

Ymin (6 h) | SMILES
A (Ymin < 50%) | Cc1ncsc1-c1ccc([C@H](C)NC(=O)[C@@H]2C[C@@H](O)CN2C(=O)[C@@H](NC(=O)CCCCCn2nc(C)c(-c3ccc(N4CCc5cccc(C(=O)Nc6nc7ccccc7s6)c5C4)nc3C(=O)O)c2C)C(C)(C)C)cc1 [Compound 101a, 6-[8-(1,3-benzothiazol-2-ylcarbamoyl)-3,4-dihydro-1H-isoquinolin-2-yl]-3-[1-[6-[[(1S)-1-[(2S,4R)-4-hydroxy-2-[[(1S)-1-[4-(4-methylthiazol-5-yl)phenyl]ethyl]carbamoyl]pyrrolidine-1-carbonyl]-2,2-dimethyl-propyl]amino]-6-oxo-hexyl]-3,5-dimethyl-pyrazol-4-yl]pyridine-2-carboxylic acid]
A (Ymin < 50%) | Cc1ncsc1-c1ccc([C@H](C)NC(=O)[C@@H]2C[C@@H](O)CN2C(=O)[C@@H](NC(=O)CCCCCCCCCCCCCCCn2nc(C)c(-c3ccc(N4CCc5cccc(C(=O)Nc6nc7ccccc7s6)c5C4)nc3C(=O)O)c2C)C(C)(C)C)cc1 [Compound 102a, 6-[8-(1,3-Benzothiazol-2-ylcarbamoyl)-3,4-dihydro-1H-isoquinolin-2-yl]-3-[1-[16-[[(1S)-1-[(2S,4R)-4-hydroxy-2-[[(1S)-1-[4-(4-methylthiazol-5-yl)phenyl]ethyl]carbamoyl]pyrrolidine-1-carbonyl]-2,2-dimethyl-propyl]amino]-16-oxo-hexadecyl]-3,5-dimethyl-pyrazol-4-yl]pyridine-2-carboxylic acid]
A (Ymin < 50%) | Cc1ncsc1-c1ccc([C@H](C)NC(=O)[C@@H]2C[C@@H](O)CN2C(=O)[C@@H](NC(=O)CCCCCCCn2nc(C)c(-c3ccc(N4CCc5cccc(C(=O)Nc6nc7ccccc7s6)c5C4)nc3C(=O)O)c2C)C(C)(C)C)cc1 [Compound 103a, 6-[8-(1,3-benzothiazol-2-ylcarbamoyl)-3,4-dihydro-1H-isoquinolin-2-yl]-3-[1-[8-[[(1S)-1-[(2S,4R)-4-hydroxy-2-[[(1S)-1-[4-(4-methylthiazol-5-yl)phenyl]ethyl]carbamoyl]pyrrolidine-1-carbonyl]-2,2-dimethyl-propyl]amino]-8-oxo-octyl]-3,5-dimethyl-pyrazol-4-yl]pyridine-2-carboxylic acid]

Same assay, conditions: HT1080 cells expressing N-terminal HiBiT tagged BCL-XL, 24 h, normalized with DMSO control

Ymin (24 h) | SMILES
B (50% ≤ Ymin < 70%) | Cc1ncsc1-c1ccc([C@H](C)NC(=O)[C@@H]2C[C@@H](O)CN2C(=O)[C@@H](NC(=O)C[C@@H](Cc2ccc(Oc3cccc(-c4ccc(N5CCc6cccc(C(=O)Nc7nc8ccccc8s7)c6C5)nc4C(=O)O)c3C)cc2)C(F)(F)F)C(C)(C)C)cc1 (relative stereo) [Compound 131b, 6-(8-(benzo[d]thiazol-2-ylcarbamoyl)-3,4-dihydroisoquinolin-2 (1H)-yl)-3-(3-(4-((R)-4-(((S)-1-((2S,4R)-4-hydroxy-2-(((S)-1-(4-(4-methylthiazol-5-yl)phenyl)ethyl)carbamoyl)pyrrolidin-1-yl)-3,3-dimethyl-1-oxobutan-2-yl)amino)-4-oxo-2-(trifluoromethyl)butyl)phenoxy)-2-methylphenyl)picolinic acid]
A (Ymin < 50%) | Cc1ncsc1-c1ccc([C@H](C)NC(=O)[C@@H]2C[C@@H](O)CN2C(=O)[C@@H](NC(=O)C[C@@H](C)Cc2ccc(Oc3cccc(-c4ccc(N5CCc6cccc(C(=O)Nc7nc8ccccc8s7)c6C5)nc4C(=O)O)c3C)cc2)C(C)(C)C)cc1 (relative stereo) [Compound 134a, 6-[8-(1,3-benzothiazol-2-ylcarbamoyl)-3,4-dihydro-1H-isoquinolin-2-yl]-3-[3-[4-[(2S)-4-[[(1S)-1-[(2S,4R)-4-hydroxy-2-[[(1S)-1-[4-(4-methylthiazol-5-yl)phenyl]ethyl]carbamoyl]pyrrolidine-1-carbonyl]-2,2-dimethyl-propyl]amino]-2-methyl-4-oxo-butyl]phenoxy]-2-methyl-phenyl]pyridine-2-carboxylic acid]
A (Ymin < 50%) | Cc1ncsc1-c1ccc([C@H](C)NC(=O)[C@@H]2C[C@@H](O)CN2C(=O)[C@@H](NC(=O)CC[C@@H](c2ccc(Oc3cccc(-c4ccc(N5CCc6cccc(C(=O)Nc7nc8ccccc8s7)c6C5)nc4C(=O)O)c3C)cc2)C(F)(F)F)C(C)(C)C)cc1 (relative stereo) [Compound 135a, 6-(8-(benzo[d]thiazol-2-ylcarbamoyl)-3,4-dihydroisoquinolin-2 (1H)-yl)-3-(2-methyl-3-(4-((S)-1,1,1-trifluoro-5-(((S)-1-((2S,4R)-4-hydroxy-2-(((S)-1-(4-(4-methylthiazol-5-yl)phenyl)ethyl)carbamoyl)pyrrolidin-1-yl)-3,3-dimethyl-1-oxobutan-2-yl)amino)-5-oxopentan-2-yl)phenoxy)phenyl)picolinic acid]
A (Ymin < 50%) | Cc1ncsc1-c1ccc([C@H](C)NC(=O)[C@@H]2C[C@@H](O)CN2C(=O)[C@@H](NC(=O)CC[C@H](c2ccc(Oc3cccc(-c4ccc(N5CCc6cccc(C(=O)Nc7nc8ccccc8s7)c6C5)nc4C(=O)O)c3C)cc2)C(F)(F)F)C(C)(C)C)cc1 (relative stereo) [Compound 135b, 6-(8-(benzo[d]thiazol-2-ylcarbamoyl)-3,4-dihydroisoquinolin-2 (1H)-yl)-3-(2-methyl-3-(4-((R)-1,1,1-trifluoro-5-(((S)-1-((2S,4R)-4-hydroxy-2-(((S)-1-(4-(4-methylthiazol-5-yl)phenyl)ethyl)carbamoyl)pyrrolidin-1-yl)-3,3-dimethyl-1-oxobutan-2-yl)amino)-5-oxopentan-2-yl)phenoxy)phenyl)picolinic acid]
A (Ymin < 50%) | Cc1ncsc1-c1ccc([C@H](C)NC(=O)[C@@H]2C[C@@H](O)CN2C(=O)[C@@H](NC(=O)CC[C@H](C)c2ccc(Oc3cccc(-c4ccc(N5CCc6cccc(C(=O)Nc7nc8ccccc8s7)c6C5)nc4C(=O)O)c3C)cc2)C(C)(C)C)cc1 (single isomer, unassigned) [Compound 129a]
A (Ymin < 50%) | Cc1ncsc1-c1ccc([C@H](C)NC(=O)[C@@H]2C[C@@H](O)CN2C(=O)[C@@H](NC(=O)CC[C@@H](C)c2ccc(Oc3cccc(-c4ccc(N5CCc6cccc(C(=O)Nc7nc8ccccc8s7)c6C5)nc4C(=O)O)c3C)cc2)C(C)(C)C)cc1 (single isomer, unassigned) [Compound 129b]
A (Ymin < 50%) | Cc1ncsc1-c1ccc([C@H](C)NC(=O)[C@@H]2C[C@@H](O)CN2C(=O)[C@@H](NC(=O)C[C@H](Cc2ccc(Oc3cccc(-c4ccc(N5CCc6cccc(C(=O)Nc7nc8ccccc8s7)c6C5)nc4C(=O)O)c3C)cc2)C(F)(F)F)C(C)(C)C)cc1 (single isomer, unassigned) [Compound 131a]
A (Ymin < 50%) | Cc1ncsc1-c1ccc([C@H](C)NC(=O)[C@@H]2C[C@@H](O)CN2C(=O)[C@@H](NC(=O)CC(C)Cc2ccc(Oc3cccc(-c4ccc(N5CCc6cccc(C(=O)Nc7nc8ccccc8s7)c6C5)nc4C(=O)O)c3C)cc2)C(C)(C)C)cc1 (single isomer, unassigned) [Compound 134b, 6-(8-(benzo[d]thiazol-2-ylcarbamoyl)-3,4-dihydroisoquinolin-2(1H)-yl)-3-(3-(4-((R*)-4-(((S)-1-((2S,4R)-4-hydroxy-2-(((S)-1-(4-(4-methylthiazol-5-yl)phenyl)ethyl)carbamoyl)pyrrolidin-1-yl)-3,3-dimethyl-1-oxobutan-2-yl)amino)-2-methyl-4-oxobutyl)phenoxy)-2-methylphenyl)picolinic acid]
A (Ymin < 50%) | Cc1ncsc1-c1ccc([C@H](C)NC(=O)[C@@H]2C[C@@H](O)CN2C(=O)[C@@H](NC(=O)C(C)(C)[C@H]2CC[C@@H](Oc3cccc(-c4ccc(N5CCc6cccc(C(=O)Nc7nc8ccccc8s7)c6C5)nc4C(=O)O)c3C)CC2)C(C)(C)C)cc1 (single isomer, unassigned) [Compound 138a]
C (Ymin ≥ 70%) | Cc1ncsc1-c1ccc([C@H](C)NC(=O)[C@@H]2C[C@@H](O)CN2C(=O)[C@@H](NC(=O)C(C)(C)[C@H]2CC[C@H](Oc3cccc(-c4ccc(N5CCc6cccc(C(=O)Nc7nc8ccccc8s7)c6C5)nc4C(=O)O)c3C)CC2)C(C)(C)C)cc1 (single isomer, unassigned) [Compound 138b]
A (Ymin < 50%) | Cc1ncsc1-c1ccc([C@H](C)NC(=O)[C@@H]2C[C@@H](O)CN2C(=O)[C@@H](NC(=O)[C@H](C)CCc2ccc(Oc3cccc(-c4ccc(N5CCc6cccc(C(=O)Nc7nc8ccccc8s7)c6C5)nc4C(=O)O)c3C)cc2)C(C)(C)C)cc1 (single isomer, unassigned) [Compound 143a]
A (Ymin < 50%) | Cc1ncsc1-c1ccc([C@H](C)NC(=O)[C@@H]2C[C@@H](O)CN2C(=O)[C@@H](NC(=O)[C@@H](C)CCc2ccc(Oc3cccc(-c4ccc(N5CCc6cccc(C(=O)Nc7nc8ccccc8s7)c6C5)nc4C(=O)O)c3C)cc2)C(C)(C)C)cc1 (single isomer, unassigned) [Compound 143b]
